These results are taken from patent US20250057808A1, “COMPOSITION COMPRISING BETA LACTAM FOR TREATING ALCOHOL DEPENDENCE AND ALCOHOL ASSOCIATED DISEASES OR CONDITIONS” (Temple University of the Commonwealth System of Higher …, priority 2023, published 2025).

Entries after “also recorded” stand apart in the source; their conditions may differ.

One assay has as its system PPAR-α. The experiment in a line: Western blot PPAR-α expression in NAc-core, NAc-shell and liver. It counts as in vivo, P rats. The following applies: MC-100093 50 mg/kg or ceftriaxone 200 mg/kg i.p. 5 days; among all groups. How it is done: We used micro-punch procedure to dissect the subregions of the NAc such as NAc-core and NAc-shell as well as the subregions of prefrontal cortex such as infralimbic (IL) and prelimbic (PL) from the brain on day 6 after the last injection day. P rats were removed from the cage and rapidly euthanized by CO2 inhalation followed by rapid decapitation with a guillotine. Brains were isolated and immediately frozen on dry ice and stored at −80° C. The stereotaxic coordinates provided by Paxinos and colleague's rat brain stereotactic atlas was used to isolate NAc-core and NAc-shell using a cryostat apparatus (−20° C.), which then kept at −80° C. for later western blot analyses.
Western Blot assay was performed to measure changes in the expression of GLT-1, xCT, mGluR1, mGluR5, PPAR-α, PPARγ, GAPDH and β-tubulin in the NAc-core and NAc-shell as described in previous publications. A lysis buffer containing protease and phosphatase inhibitors was used to generate a homogenate of liver, Nac-core, and Nac-shell samples. The amount of protein was quantified using a detergent compatible protein assay (Bio-Rad, Hercules, CA, USA) for each sample. Samples were mixed with laemmli dye and loaded with equal amounts on polyacrylamide gels (10%), which separated the proteins using electrophoresis. After that, polyvinylidene difluoride (PVDF) membranes were used to transfer the proteins electrophoretically from the gels. Membranes were incubated in 5% free-fat milk in Tris-buffered saline with Tween-20 (TBST) for 30-60 minutes at room temperature. Membranes were then incubated with appropriate primary antibodies overnight at 4° C.: rabbit anti-GLT-1 (1:5000, Abcam, ab41621), rabbit anti-xCT (1:2000, Abcam, ab175186), rabbit anti-mGluR1 (1:1000, Abcam, ab82211), rabbit anti-mGluR5 (1:1000, Abcam, ab76316), rabbit anti-PPAR-α (1:1000, Abcam, ab24509), and rabbit anti-PPARγ (1:1000, Abcam, ab209350). Mouse anti-β-tubulin (1:1000; BioLegend) was used as a loading control antibody for the brain samples and rabbit anti-GAPDH (1:5000; cell signaling) was used as a loading control antibody for the liver samples. Membranes were washed five times on the next day with TBST followed by incubation with appropriate secondary antibody (1:5000) for 90 minutes at room temperature. Chemiluminescent reagents (Super Signal West Pico, Pierce Inc.) were used to detect the proteins using a GeneSys imaging system to develop the digitized blot images. Water-control group data were represented as 100% and all other values were expressed relative to control group to detect changes in the expression of the protein of interest in the brain and liver samples.
All statistical analyses were conducted with Graphpad Prism software, with p-values of 0.05 or less being statistically significant. […]
(In general: A western blot detects proteins with antibodies after separation by electrophoresis.)

For a further assay, the system named is fat content in the liver. Put plainly: Liver Oil Red O staining (fat content). It counts as in vivo, P rats. The following applies: MC-100093 50 mg/kg or ceftriaxone 200 mg/kg i.p. 5 days, control, ethanol, ethanol-CEF groups. Here is the method:
To measure the fat content in the liver sections, we used Oil Red O (Sigma, CAS Number 1320-06-5) staining on 10 μm thick formalin-fixed liver sections and placed in slides for further staining. The slides were stained with freshly prepared Oil Red O working solution 15 minutes then rinsed with 60% isopropanol. Slides were then rinsed with distilled water and mounted in aqueous mounting media and prepared for imaging. The degree of Oil Red O staining was determined at 20× magnification using a color video camera attached to an Olympus VS120 slide scanning microscope. Olympus OlyVIA software was used to analyze the images. The lipid droplets were quantified using Image J pro (NIH). Data are presented as the mean+SEM of the Oil Red O staining for each group.
All statistical analyses were conducted with Graphpad Prism software, with p-values of 0.05 or less being statistically significant. We performed a two-way (mixed model) ANOVA followed by Bonferroni multiple comparison post-hoc test to analyze 24 h ethanol consumption, 24 h water consumption, and daily body weight. For the Western blot and oil red O staining analysis, we performed one-way ANOVA with Newman-Keuls as a post hoc multiple comparison test to measure differences between groups as a percentage (relative to control values).

Take `C[C@@H](O)[C@H]1C(=O)N[C@@H]1[C@@H](C)C(=O)N1CCN(C)CC1` [MC-100093]: in the assay with PPAR-α, the “Protein expression of PPAR-α in the NAc-core” value is “non-significant differences; also recorded: did not detect significant changes” and the “Protein expression of PPAR-α in the NAc-shell” value is listed as “non-significant differences; also recorded: did not detect significant changes”. Also, the “Liver fat content (Oil Red O stained fat droplets)” value in the assay on fat content in the liver was “no significant difference in fat content between control, ethanol-MC, and ethanol-CEF groups; also recorded: significantly higher fat droplet content in ethanol group (p<0.05) compared to control, ethanol-MC or ethanol-CEF groups; also recorded: alleviated the liver steatosis”.
